Experiments:
[1] = test system: CD4 T cells from an HIV positive patient with ART suppressed HIV replication; assay: Flow cytometry of CD4 T cells from an HIV positive patient for intracellular p24 and activated caspase 3 (FIG. 7); assay type: cell-based, human; conditions: 48 hours
Procedure: FIG. 7 contains flow cytometry results of CD4 T cells from an HIV positive patient with ART suppressed HIV replication. Cells were treated with bortezomib or MLN-2238 (ixazomib) at the indicated doses and analyzed 48 hours later for intracellular p24 expression (as a measure of HIV reactivation), and for activated caspase 3 expression (as a measure of cell death).

UPR pathway [2] = assay: UPR pathway activation in J Lat cells: ATF4 and CHOP nuclear translocation, ATF6 cleavage (FIG. 13); assay type: cell-based; conditions: bortezomib (10 nM) or ixazomib (50 nM)
Procedure: FIG. 13. J-LAT-10.6 or Jurkat cells were treated with bortezomib (10 nM) or ixazomib (50 nM) for the indicated times. Bortezomib and ixazomib induced ATF4 and CHOP translocation into the nucleus, and ATF6 cleavage in J Lat cells, indicating the activation of the UPR pathway.

HDAC-4 = HDAC-4 expression in primary CD4 T cells (FIG. 11); assay type: cell-based
Procedure: (§1) FIG. 11. […] Proteosome inhibitors were analyzed for the ability to alter the expression of HDAC. Bortezomib and ixazomib decreased HDAC-1, HDAC-3, and HDAC-4 expression in primary CD4 T cells.

UPR pathway [3] = assay: UPR pathway activation in J Lat cells: phospho PERK, phospho IRE1, JNK (FIG. 12); assay type: cell-based; conditions: bortezomib (10 nM) or ixazomib (50 nM)
Procedure: FIG. 12. J-LAT-10.6 or Jurkat cells were treated with bortezomib (10 nM) or ixazomib (50 nM) for the indicated times. Bortezomib and ixazomib induced phospho PERK, phospho IRE1, and JNK activation in J Lat cells, indicating the activation of the UPR pathway.

HDAC-1 = HDAC-1 expression in primary CD4 T cells (FIG. 11); assay type: cell-based
Procedure: as §1

[4] = test system: J-Lat cells (a model of HIV latency using GFP HIV); assay: J-Lat cells time course flow cytometry (FIG. 8); assay type: cell-based; conditions: analyzed at 24, 48, and 72 hours
Procedure: J-Lat cells (a model of HIV latency using GFP HIV) were treated with bortezomib or ixazomib at the indicated doses and analyzed at 24, 48, and 72 hours.

HDAC-3 = HDAC-3 expression in primary CD4 T cells (FIG. 11); assay type: cell-based
Procedure: as §1

HIV-LTR = assay: Luc expression in primary CD4 T cells infected with HIV luc or transfected with HIV-LTR Luc (FIG. 9); assay type: cell-based; conditions: primary CD4 T cells infected with HIV luc or transfected with HIV-LTR Luc and TK renilla
Procedure: Primary CD4 T cells infected with HIV luc (top panel) or primary CD4 T cells transfected with HIV-LTR Luc and co-transfected TK renilla (bottom panel) were treated with the indicated doses of bortezomib or ixazomib, and analyzed for Luc expression as a measure of HIV reactivation.

[5] = test system: J-Lat cells (a model of HIV latency, using GFP tagged HIV); assay: J-Lat cells flow cytometry for HIV GFP expression and activated caspase 3 (FIG. 6); assay type: cell-based; conditions: 24 hours, bortezomib 1, 10, or 20 nM, MLN-2238 (ixazomib) 10 or 50 nM
Procedure: FIG. 6 contains flow cytometry results of J-Lat cells (a model of HIV latency, using GFP tagged HIV) treated with nothing, bortezomib (1, 10, or 20 nM), or MLN-2238 (ixazomib; 10 or 50 nM) and analyzed 24 hours later for activated caspase 3 expression and for HIV expression.

## CC(C)C[C@H](NC(=O)[C@H](Cc1ccccc1)NC(=O)c1cnccn1)B(O)O [bortezomib, N-pyrazinecarbonyl-L-phenylalanine-L-leucine boronic acid]
[1]
  HIV reactivation (intracellular p24 expression): caused HIV reactivation as indicated by increased HIV p24 expression
  death of HIV positive cells (activated caspase 3 expression in p24 positive cells): caused HIV positive cells to die
UPR pathway [2]
  ATF4 translocation into the nucleus: induced
  ATF6 cleavage: induced
  CHOP translocation into the nucleus: induced
HDAC-4
  HDAC-4 expression: decreased
UPR pathway [3]
  JNK activation: induced
  phospho IRE1: induced
  phospho PERK: induced
HDAC-1
  HDAC-1 expression: decreased
[4]
  HIV reactivation from latency: caused HIV reactivation from latency
HDAC-3
  HDAC-3 expression: decreased
HIV-LTR
  HIV reactivation (Luc expression): independently reactivated HIV
[5]
  HIV reactivation (HIV GFP expression): caused HIV reactivation as indicated by increased HIV GFP expression
  death of HIV GFP positive cells (activated caspase 3 expression): caused HIV GFP positive cells to die

From patent publication US11376268B2, “Methods and materials for treating human immunodeficiency virus infections” (priority 2015, dated 2022)
